Laboratory results as given in patent US20180292390A1 (priority 2015, published 2018).
Like-named read-outs stand apart in the source and are kept apart here.

Key:
[1] = test system: BRB in retinal slice cultures; assay: IgG immunostaining of retinal slice cultures: BRB breach; format: cell-based; settings: for IgG in neurons (indicator of BRB breach): retinal slices treated with histamine with or without lipoxin A4, FIG. 10
From the text: Untreated samples served as control. The slices were then processed to generate cryosections for immunostaining. The location of IgG (an indicator of BRB breach) was monitored by immunostaining.

Muller cell processes = assay: GFAP immunostaining of ex vivo retinal culture: Muller cell processes; format: cell-based; settings: retina untreated, histamine only, LXA4 only, or both, FIG. 15
Description: This experiment followed the protocol of Example 1. This example illustrates a new analysis added for drug evaluation in ex vivo retinal culture. […] Statistical significance is determined by two-tailed Student's t test. *, P<0.05; **, P<0.01; ***, P<0.001. Mean±SEM is plotted in the graph.

[2] = test system: neurons in mouse brain organotypic cultures; settings: 450 μM histamine; for vimentin-positive neurons: 2 mm MBO
Description: (§1) Primary mouse brain organotypic cultures were prepared as described previously ((Levin et al., Brain Res. 1298, 194-207, 2009). Briefly, the brains were removed from C57BL/6 mice (n=8) and cut to either 1 mm or 2 mm thickness using a tissue chopper. The brain slices were then placed in medium containing 25% inactivated horse serum, 25% Hanks' BSS, 50% DMEM, and 25 mg/l penicillin-streptomycin (Invitrogen, Carlsbad, Calif.) in 6-well culture dishes and maintained for 30 min at room temperature. The brain slices were then moved to either fresh media (control) or fresh media containing 450 μM histamine (Sigma, Saint Louis, Mo., Cat. No. H7125-1G) in 6-well culture dishes for 1 hr at 37° C. in a 5% CO2-enriched atmosphere. The brain slices were fixed with 4% paraformaldehyde (PFA) in PBS at room temperature and processed for immunohistochemistry as described below.
(§2) The mouse brain organotypic brain slices were stored in 4% PFA overnight at 4° C. The brain slices were then infiltrated with 10% sucrose in PBS for 2 hours, followed by 30% sucrose in PBS overnight at 4° C. under constant, gentle agitation. Using a Leica cryostat, 12 μm thick frozen sections were cut, mounted onto Fisher Super Frost Plus slides, and air dried. Immunohistochemistry for the paraffin-embedded tissues was carried out using procedure well known in the art. Briefly, tissues were deparaffinized using xylene and then rehydrated through a graded series of decreasing concentrations of ethanol. Next, protein antigenicity was enhanced by microwaving sections in citrate buffer. The paraffin-embedded tissues were then processed in the same way as the frozen sections described below.
(§3) Immunohistochemistry for the frozen sections was carried out as previously described ((Levin et al., Brain Res. 1298, 194-207, 2009). Briefly, tissues were rehydrated with PBS for 2 min. The endogenous peroxidase was quenched by treating sections with 0.3% H202 for 30 min. First, sections were incubated in blocking serum for 30 min. at room temperature, and then treated with primary antibodies at appropriate dilutions for 1 hr at room temperature. Next, sections were thoroughly rinsed with PBS, and sections were incubated with biotin-labeled secondary antibody for 30 min. at room temperature. Sections were then treated with the avidin-peroxidase-labeled biotin complex (ABC, Vector Labs, Foster City, Calif.) and visualized by treating with either 3-3-diaminobenzidine-4-HCL (DAB)/H2O2 (Biomeda, Foster City, Calif.) or NovaRed (Vector Labs, Foster City, Calif., Cat. No. SK-4800). Sections were then lightly counterstained with hematoxylin, dehydrated through increasing concentrations of ethanol, cleared in xylene and mounted in Permount. Specimens were examined and photographed with a Nikon FXA microscope, and digital images were recorded using a Nikon DXM1200F digital camera and processed using Image Pro Plus (Phase 3 Imaging, Glen Mills, Pa.) image software.
(§4) Leaky and non-leaky vessels, GFAP-positive and -negative astrocytes, and vimentin-positive and -negative neurons were counted in sections of primary mouse brain organotypic culture slices. Images were optimized and counting was performed using the counting feature of Adobe Photoshop CS3. Three sections were examined per treatment group, with at least ten viewing fields counted from each section, for a total of 30 viewing fields per treatment group. Only blood vessels with endothelial cell nuclei, astrocytes with their nuclei, and neurons with their nuclei within the plane of section were included in the count. […] The percentage of total leaky vessels, GFAP-positive astrocytes, and vimentin-positive neurons for histamine treated and control slices were determined.
(§5) Immunohistochemistry (IHC) was used to evaluate the effects of histamine on BBB permeability and the response of cells within the surrounding brain parenchyma.

[3] = test system: BBB (blood vessels) in mouse brain organotypic cultures; settings: 450 μM histamine; for blood vessel leakage: 1 hour; for percentage of leaky vessels (IgG extravasated out of blood vessels): 2 mm MBO
Description: as §1, §2, §3, §4, §5

[4] = test system: astrocytes in mouse brain organotypic cultures; settings: 450 μM histamine; for GFAP-positive astrocytes (GFAP expression): 1 hr, 2 mm MBO
Description: as §1, §2, §3, §4, §5

[5] = test system: MAP2 expression in retinal slices; settings: retinal slices treated with histamine 0, 30, 60 or 90 min, FIG. 9
From the text: (§6) The slices were then processed to generate cryosections for immunostaining.

[6] = test system: GFAP expression in retinal slices; settings: retinal slices treated with histamine 0, 30, 60 or 90 min, FIG. 8
From the text: as §6

BBB, mouse brain = assay: IgG immunostaining of brain cortex of PT-treated mice: BBB compromise; format: in vivo
From the text: This experiment followed the protocol of Example 1. This experiment involved S100B knockout (KO) mice, focusing on age-dependent increase of blood-brain barrier permeability and neuron-binding autoantibodies in SB100KO mice. […] Overlay of IgG immunostaining (red) with DAPI (blue) is presented from cortical region of the brain. (FIG. 18A) In untreated wild type (WT) brains, IgG-positive staining was confined to the microvasculature, indicating intact blood vessels (arrows). […] (FIG. 18C). In the S100BKO mouse brain (KO), even without PT treatment, IgG-positive leaks (marked by white dotted circle) were observed. (FIG. 18D).

retinal neurons = assay: SV2 and MAP2 immunostaining of retina of pertussis toxin treated mice; format: in vivo; settings: pertussis toxin treated wild type mice

With `CCCCC[C@H](O)/C=C/C=C\C=C\C=C\[C@@H](O)[C@@H](O)CCCC(=O)O` [LXA4, lipoxin A4] the “IgG in neurons (indicator of BRB breach)” value [1] was “conferred protection from these effects” and the “Muller cell processes (GFAP staining, width)” value (Muller cell processes) was “Rescued”.

With `NCCc1c[nH]cn1` [histamine] the neuronal damage-responses ([2]; 1 hour, 1 mm MBOs) was 51.8%, the “vimentin expression by neurons” value ([2]; 1 hour, 2 mm MBOs) was 46.5% and the vimentin-positive neurons ([2]; 1 hr, distal portion) was 47.5%. For the same compound, the vimentin-positive neurons ([2]; 1 hr, middle portion) was 45.1%, the vimentin-positive neurons ([2]; 1 hr, proximal portion) was 47% and the “increase in neurons expressing vimentin compared to control sections” value ([2]; 1 hr, MBO, FIG. 5C) was “greater than four-fold”. The blood vessel leakage ([3]; 1 mm MBOs) was 30.9%, the blood vessel leakage ([3]; 2 mm MBOs) was 24.4% and the “percentage of leaky vessels (IgG extravasated out of blood vessels)” value (“percentage of leaky vessels” for short) ([3]; 1 hr, distal portion (700-1050 μm)) was 32.4%. The “percentage of leaky vessels” value ([3]; 1 hr, middle portion (350-700 μm)) was 24.7%, the “percentage of leaky vessels” value ([3]; 1 hr, proximal portion (0-350 μm)) was 19.9% and the “perivascular leakage, histamine treated compared to controls, overall” value ([3]; 1 hr, MBO, FIG. 5A) was “more than two-fold”. For the same compound, the astrocyte activation ([4]; 1 hour, 1 mm MBOs) was 47.7%, the “GFAP expression by astrocytes” value ([4]; 1 hour, 2 mm MBOs) was 45.7% and the “GFAP-positive astrocytes (GFAP expression)” value (“GFAP-positive astrocytes” below) ([4]; distal portion) was 48.4%. The “GFAP-positive astrocytes” value ([4]; middle portion) was 45.1%, the “GFAP-positive astrocytes” value ([4]; proximal portion) was 43.6% and the “BRB integrity, location of IgG” value ([1]; retinal slices after histamine treatment, FIG. 7) was “BRB breakdown and extravasated IgG surrounding blood vessels”. The “IgG in neurons (indicator of BRB breach)” value [1] was “neurons were loaded with IgG”, the “Muller cell processes (GFAP staining, width)” value (Muller cell processes) was “Compromised” and the MAP2 expression [5] was “decrease in MAP2 expression”. The GFAP expression [6] was “elevation in GFAP expression”.

For Pertussis toxin [PT], the “IgG binding to neurons in brain cortex” value (BBB, mouse brain; S100BKO mice treated with PT, FIG. 18D) was “intensely bound by IgG”, the “IgG-positive staining in brain cortex” value (BBB, mouse brain; wild type (WT) mice with PT treatment, FIG. 18B) was “IgG-positive microvascular leaks” and the “retinal neuronal damage by SV2 and MAP2 immunostaining” value (retinal neurons) was “displays retinal neuronal damages”.
